6 molecules from patent US20250074943A1, “DLL3 BINDING PEPTIDES AND USES THEREOF” (AMGEN INC., priority 2021, published 2025) can be followed below.

Where two headings read alike, the source gives them in different places. Numbered stars: 1 amine (or outer) side, 2 acyl side, 3 side chain; on linkers, the order of the positions; unused ones are H or OH. Bridge positions count the residues as written; N and C are the ends. Square brackets hold non-standard residues; d marks the D form. Ends that are not written are not given here. Peptide text beside a SMILES is read from it. * marks the point of attachment. X6 = CCOCCOCCOCCOCc1cn(CCCC[C@@H]2CC(=O)C(CC(=O)NCCCOCCOCCOCCCN*)NC2=O)nn1; X4 = CC(C(=O)CN[*:1])[C@@H](C(=O)[*:2])[C@H](C)O; X5 = O=C([C@@H](CC1=CCc2ccccc21)N[*:1])[*:2]; Isobutyryl = CC(C)C(=O)*

In experiment [1] the target is T1, native huDLL3 on the surface of cells (CHO cells) (Homo sapiens, UniProt Q9NYJ7).
T1 construct: expressed in transfected cells; host or cells: CHO (CHO-huDLL3)
T1 sequence (Q9NYJ7 27-618): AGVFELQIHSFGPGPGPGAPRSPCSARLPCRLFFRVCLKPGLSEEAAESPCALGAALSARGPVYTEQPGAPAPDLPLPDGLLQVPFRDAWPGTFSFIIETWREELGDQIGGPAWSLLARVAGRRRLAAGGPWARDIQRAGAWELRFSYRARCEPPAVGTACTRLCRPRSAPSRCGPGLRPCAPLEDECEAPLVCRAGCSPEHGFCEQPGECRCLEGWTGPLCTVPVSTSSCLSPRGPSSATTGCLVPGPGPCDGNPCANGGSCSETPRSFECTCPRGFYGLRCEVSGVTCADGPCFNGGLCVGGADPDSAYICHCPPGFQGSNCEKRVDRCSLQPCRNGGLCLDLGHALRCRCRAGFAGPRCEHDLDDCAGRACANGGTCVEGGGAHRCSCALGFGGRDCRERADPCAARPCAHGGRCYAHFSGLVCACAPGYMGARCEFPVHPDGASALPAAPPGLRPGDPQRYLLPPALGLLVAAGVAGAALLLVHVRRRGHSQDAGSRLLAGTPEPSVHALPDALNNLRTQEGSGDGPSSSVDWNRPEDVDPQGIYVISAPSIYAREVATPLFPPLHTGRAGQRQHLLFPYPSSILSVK
The experiment is described as follows: Flow cytometry competition with AF647-labelled peptide. In kind it is cell-based. Conditions: for efficiency in competing the binding of the AF647-labelled PepSP1146: compared with monomer PepSP1146. The method, then: HEK293-huDLL3, CHO-huDLL3 and the corresponding parental cell lines were detached with EDTA 2.5 mM and re-suspended at 1.8×10^6 cells/ml in FACS buffer (1×PBS, 2% FBS), distributed at 500 μl per testing tube and pelleted 5 min at 1300 rpm in a Heraeus Multifuge […] centrifuge.
Background: In flow cytometry, cells or beads pass a laser one at a time.

The next experiment has as its target T2, rhDLL3-Fc (Homo sapiens, UniProt Q9NYJ7).
T2 construct: The recombinant DLL3 ectodomain (rhDLL3-Fc) was biotinylated; Fc
T2 sequence (Q9NYJ7 27-492 limits assumed): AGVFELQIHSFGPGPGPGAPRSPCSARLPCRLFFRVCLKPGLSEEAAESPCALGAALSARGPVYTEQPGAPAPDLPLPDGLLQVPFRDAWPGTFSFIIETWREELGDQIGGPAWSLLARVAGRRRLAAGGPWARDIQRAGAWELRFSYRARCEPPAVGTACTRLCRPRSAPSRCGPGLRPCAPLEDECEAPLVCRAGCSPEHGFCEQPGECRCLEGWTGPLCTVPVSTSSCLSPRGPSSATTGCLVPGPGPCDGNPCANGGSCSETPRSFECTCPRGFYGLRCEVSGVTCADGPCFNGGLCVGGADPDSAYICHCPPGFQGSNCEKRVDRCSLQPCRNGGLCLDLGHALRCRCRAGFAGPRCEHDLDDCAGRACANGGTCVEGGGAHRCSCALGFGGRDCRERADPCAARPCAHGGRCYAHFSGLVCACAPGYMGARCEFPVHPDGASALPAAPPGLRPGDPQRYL
In words: SPR binding / off-rate screening (Biacore T200). Conditions: curve fitting of SPR sensorgrams; for koff: read-out: koff; for kon: read-out: kon. As for the experimental part: […] The recombinant DLL3 ectodomain (rhDLL3-Fc) was biotinylated using EZ-Link Sulfo-NHS-LC-LC-Biotin Kit according to the manufacturer's protocol (Pierce by Thermo Fisher Scientific). The recombinant protein was incubated with an excess of NHS-LC-LC Biotin ester, in a molar ratio of 1:3 (protein: biotin), at 25° C. for 90 min. The un-reacted biotin ester was removed by subsequent buffer exchange on 0.5 ml Zeba spin desalting columns 7K MWCO (Pierce by Thermo Fisher Scientific).
The off-rate screening of the peptides was done using a Biacore T200 instrument (Cytiva, Sweden). […] Sensorgrams were analyzed by Biacore T200 Evaluation Software 3.0 (Cytiva, Sweden): specific binding was obtained by subtracting unspecific binding to naked biosensors and a zero analyte concentration made of binding assay buffer (double referencing). […]

The target in experiment [2] is T3, recombinant DLL3 ectodomain (rhDLL3-Fc) (Homo sapiens, UniProt Q9NYJ7).
T3 construct: The recombinant DLL3 ectodomain (rhDLL3-Fc) was biotinylated; Fc
T3 sequence (Q9NYJ7 27-492 limits assumed): T2 sequence (Q9NYJ7 27-492 limits assumed)
The experiment is described as follows: Binding kinetic assay using Bio-layer interferometry (BLI). Conditions: for binding mode to DLL3: peptides at 20, 4 and 0.8 μM, fit to 1:1 Langmuir binding model; for affinity: wider dose-response 10×KD to 0.1×KD. A general note: Biolayer interferometry detects binding as a change in optical thickness at a sensor tip.

Take `CCOCCOCCOCCOCc1cn(CCCC[C@@H]2CC(=O)C(CC(=O)NCCCOCCOCCOCCCNC(=O)[C@@H](Cc3c[nH]c4ccccc34)NC(=O)[C@@H](CC3=CCc4ccccc43)NC(=O)[C@H]3CSSC[C@@H](NC(=O)CNC(=O)[C@@H](Cc4c[nH]c5ccccc45)NC(=O)[C@@H](Cc4ccccc4)NC(=O)[C@@H](CCC(=O)O)NC(=O)[C@H](NC(=O)[C@H](NC(=O)[C@@H](CCC(=O)O)NC(=O)C(C)C)[C@H](C)O)C(C)C)C(=O)N[C@H]([C@H](C)O)C(=O)NCC(=O)C(C)[C@H]([C@H](C)O)C(=O)N[C@H](Cc4c[nH]c5ccccc45)C(=O)NCC(=O)N[C@H](CC(N)=O)C(=O)N[C@H](CCC(=O)O)C(=O)N[C@H]([C@H](C)O)C(=O)N3)NC2=O)nn1` (stereo partly shown) [PepSP1272] (Isobutyryl-[dE][dT][dV][dE][dF][dW]G[dC][dT][X4][dW]G[dN][dE][dT][dC][X5][dW]-X6; disulfide 8-16): the “efficiency in competing the binding of the AF647-labelled PepSP1146” value (“efficiency in competing the binding” for short) in experiment [1] is recorded as “higher efficiency”. Also, at rhDLL3-Fc (Table 7), the koff worked out at 5.5e-05 s⁻¹ and the kon amounted to 90000 M⁻¹ s⁻¹.
For `CC(C)[C@H](NC(=O)[C@@H](NC(=O)[C@H](CCC(=O)O)NC(=O)[C@H](C)N)[C@@H](C)O)C(=O)N[C@@H](CCC(=O)O)C(=O)N[C@@H](Cc1ccccc1)C(=O)N[C@@H](Cc1c[nH]c2ccccc12)C(=O)N[C@@H](Cc1c[nH]c2ccccc12)C(=O)N[C@H]1CSSC[C@@H](C(=O)N[C@H](C(=O)N[C@@H](Cc2c[nH]c3ccccc23)C(N)=O)[C@@H](C)O)NC(=O)[C@H]([C@@H](C)O)NC(=O)[C@H](Cc2c[nH]c3ccccc23)NC(=O)[C@H](CC(N)=O)NC(=O)[C@H](CCC(=O)O)NC(=O)[C@H](CO)NC(=O)[C@H](CC(N)=O)NC(=O)CNC(=O)[C@H](CC(N)=O)NC1=O` [PepSP1171], on rhDLL3-Fc (Table 8), binding was put at a Kd of 70 nM, the koff amounted to 0.0097 s⁻¹ and the kon worked out at 140000 M⁻¹ s⁻¹. In experiment [2] (Table 4, global fitting 1:1 Langmuir, koff vs kon ratio, ± values from three independent experiments), the dissociation constant Kd worked out at 70 ± 19 nM. The residence time in experiment [2] (Table 4, ± values from three independent experiments, read-out: RT (residence time) (converted)) was 1.83 min. Moreover, in experiment [2], the “binding mode to DLL3” value is “dose-response saturable binding” and the affinity entry is reported as “double-digit nM range”. In experiment [2] (range over the seven peptides, read-out: residence time), the residence time was in the range of 1 to 3 min.
In experiment [1], `CC(C)[C@H](NC(=O)[C@@H](NC(=O)[C@H](CCC(=O)O)NC(=O)[C@H](C)N)[C@@H](C)O)C(=O)N[C@@H](CCC(=O)O)C(=O)N[C@@H](Cc1ccccc1)C(=O)N[C@@H](Cc1c[nH]c2ccccc12)C(=O)NCC(=O)N[C@H]1CSSC[C@@H](C(=O)N[C@@H](Cc2c[nH]c3ccccc23)C(=O)N[C@@H](Cc2c[nH]c3ccccc23)C(N)=O)NC(=O)[C@H]([C@@H](C)O)NC(=O)[C@H](CCC(=O)O)NC(=O)[C@H](CC(N)=O)NC(=O)CNC(=O)[C@H](Cc2c[nH]c3ccccc23)NC(=O)[C@H]([C@@H](C)O)NC(=O)CNC(=O)[C@H]([C@@H](C)O)NC1=O` [PepSP1146] gave an IC50 of 76 nM. For the same molecule, in experiment [2], the “binding mode to DLL3” value is given as “dose-response saturable binding” and the affinity entry was “double-digit nM range”.
On to `CC(C)[C@H](NC(=O)[C@@H](NC(=O)[C@H](CCC(=O)O)NC(=O)[C@H](C)N)[C@@H](C)O)C(=O)N[C@@H](CCC(=O)O)C(=O)N[C@@H](Cc1ccccc1)C(=O)N[C@@H](Cc1c[nH]c2ccccc12)C(=O)NCC(=O)N[C@H]1CSSC[C@@H](C(=O)N[C@@H](Cc2c[nH]c3ccccc23)C(=O)N[C@@H](Cc2c[nH]c3ccccc23)C(=O)NCCCOCCOCCOCCCNC(=O)CCC(=O)N[C@@H](CCCCn2cc(COCCOCCOCCOCCOCCOCCOCCOCCOCCOCCOCCOCCOCCOCc3cn(CCCC[C@H](NC(=O)CCC(=O)NCCCOCCOCCOCCCNC(=O)[C@H](Cc4c[nH]c5ccccc45)NC(=O)[C@H](Cc4c[nH]c5ccccc45)NC(=O)[C@@H]4CSSC[C@H](NC(=O)CNC(=O)[C@H](Cc5c[nH]c6ccccc56)NC(=O)[C@H](Cc5ccccc5)NC(=O)[C@H](CCC(=O)O)NC(=O)[C@@H](NC(=O)[C@@H](NC(=O)[C@H](CCC(=O)O)NC(=O)[C@H](C)N)[C@@H](C)O)C(C)C)C(=O)N[C@@H]([C@@H](C)O)C(=O)NCC(=O)N[C@@H]([C@@H](C)O)C(=O)N[C@@H](Cc5c[nH]c6ccccc56)C(=O)NCC(=O)N[C@@H](CC(N)=O)C(=O)N[C@@H](CCC(=O)O)C(=O)N[C@@H]([C@@H](C)O)C(=O)N4)C(N)=O)nn3)nn2)C(N)=O)NC(=O)[C@H]([C@@H](C)O)NC(=O)[C@H](CCC(=O)O)NC(=O)[C@H](CC(N)=O)NC(=O)CNC(=O)[C@H](Cc2c[nH]c3ccccc23)NC(=O)[C@H]([C@@H](C)O)NC(=O)CNC(=O)[C@H]([C@@H](C)O)NC1=O` [PepSP1271], for which, in experiment [1], the IC50 worked out at 10 nM and the “efficiency in competing the binding” value is “higher efficiency”. On rhDLL3-Fc (Table 7), the equilibrium dissociation constant (Kd) turned out to be 3 nM, the koff came to 0.00028 s⁻¹ and the kon came out at 104000 M⁻¹ s⁻¹.
Take “AETVEFWSCVVYGDNWTCSS-CONH2 (AETVEFWSCVVYGDNWTCSS-NH2; disulfide 9-18 (inferred)) [PepSP1172]”: in experiment [1], the “efficiency in competing the binding” value was “most efficient binder”.
Consider `CC(C)[C@H](NC(=O)[C@@H](NC(=O)[C@H](CCC(=O)O)NC(=O)[C@H](C)N)[C@@H](C)O)C(=O)N[C@@H](CCC(=O)O)C(=O)N[C@@H](Cc1ccccc1)C(=O)N[C@@H](Cc1c[nH]c2ccccc12)C(=O)NCC(=O)N[C@H]1CSSC[C@@H](C(=O)N[C@@H](Cc2c[nH]c3ccccc23)C(=O)N[C@@H](Cc2c[nH]c3ccccc23)C(=O)NCCCOCCOCCOCCCNC(=O)CCC(=O)N[C@@H](CCCCn2cc(COCCOCCOCCOCCOCCOCc3cn(CCCC[C@H](NC(=O)CCC(=O)NCCCOCCOCCOCCCNC(=O)[C@H](Cc4c[nH]c5ccccc45)NC(=O)[C@H](Cc4c[nH]c5ccccc45)NC(=O)[C@@H]4CSSC[C@H](NC(=O)CNC(=O)[C@H](Cc5c[nH]c6ccccc56)NC(=O)[C@H](Cc5ccccc5)NC(=O)[C@H](CCC(=O)O)NC(=O)[C@@H](NC(=O)[C@@H](NC(=O)[C@H](CCC(=O)O)NC(=O)[C@H](C)N)[C@@H](C)O)C(C)C)C(=O)N[C@@H]([C@@H](C)O)C(=O)NCC(=O)N[C@@H]([C@@H](C)O)C(=O)N[C@@H](Cc5c[nH]c6ccccc56)C(=O)NCC(=O)N[C@@H](CC(N)=O)C(=O)N[C@@H](CCC(=O)O)C(=O)N[C@@H]([C@@H](C)O)C(=O)N4)C(N)=O)nn3)nn2)C(N)=O)NC(=O)[C@H]([C@@H](C)O)NC(=O)[C@H](CCC(=O)O)NC(=O)[C@H](CC(N)=O)NC(=O)CNC(=O)[C@H](Cc2c[nH]c3ccccc23)NC(=O)[C@H]([C@@H](C)O)NC(=O)CNC(=O)[C@H]([C@@H](C)O)NC1=O` [PepSP1270], for which, in experiment [1], the IC50 is 15.3 nM and the “efficiency in competing the binding” value is on record as “higher efficiency”. At rhDLL3-Fc (Table 7), the Kd was 3 nM, the dissociation rate constant (koff) stood at 0.00024 s⁻¹ and the kon is 74300 M⁻¹ s⁻¹.

The koff is the rate constant with which the complex falls apart. In general, kon refers to the second-order rate constant of association. By Kd is commonly meant the free concentration of one partner at which half of the binding sites on the other are occupied at equilibrium, for simple one-to-one binding. As a reminder, the residence time is the mean lifetime of the complex, commonly the reciprocal of the off-rate. In general, IC50 refers to the concentration that inhibits the measured activity by half. Read a high IC50 as lower potency.
